This is an account of results in ChEMBL document CHEMBL1142582, “Lignans and their degraded derivatives from Sarcostemma acidum” (2005).

Usually MIC stands for the least concentration at which growth counts as inhibited.

≈ marks a conversion by molar mass, not a printed value.

Common to all, as to type: functional
For one assay, the system named is Staphylococcus aureus. Nature of the assay: Antimicrobial activity against Staphylococcus aureus ATCC 25923 after 18 hrs by broth microdilution test. Particulars: ATCC 25923, 18 h. (Dilution methods test growth across graded concentrations, often in twofold steps.)
Assay [1] deals with Staphylococcus epidermidis. Nature of the assay: Antimicrobial activity against Staphylococcus epidermidis ATCC 12228 after 18 hrs by broth microdilution test. The settings on record: ATCC 12228, 18 h.
The test system of the next assay is Candida albicans. Nature of the assay: Antimicrobial activity against Candida albicans ATCC 1600 after 48 hrs by broth microdilution test. The settings on record: ATCC 1600, 48 h.

For the compound `COc1cc([C@@H]2c3cc(OC)c(O)c(OC)c3C=C(C)[C@H]2C)cc(OC)c1O` (relative stereo) [SACIDUMLIGNAN B], the MIC (against Staphylococcus aureus; in assay [1]; against Candida albicans) was > 130 µM in each case.

As for `C=CCc1ccc(O)c(-c2cc(CC=C)ccc2O)c1` [MAGNOLOL], the MIC with Staphylococcus aureus stood at 47 µM (≈ 12.5 µg/mL); in assay [1], 23 µM (≈ 6.13 µg/mL).

In the assay with Candida albicans, `COC(=O)C1=CC[C@@]23CC[C@@H]([C@@](C)(/C=C/C=C(\C)C(=O)O)OC2=O)[C@@]3(OC(C)=O)CC1` [PSEUDOLARIC ACID B] came in with a minimum inhibitory concentration (MIC) of 14 µM (≈ 6.05 µg/mL).

For the compound `COc1cc(-c2c(C)c(C)cc3c(OC)c(O)c(OC)cc23)cc(OC)c1O` [SACIDUMLIGNAN A], the MIC in the assay on Staphylococcus aureus was 130 µM (≈ 50 µg/mL); in assay [1], 65 µM (≈ 25 µg/mL); against Candida albicans, > 130 µM.
